Measurements reported in US20050085454A1, “Phenolic antioxidant-chromium complexes for treatment or prevention of type 2 diabetes or glucose intolerance” (NATREON INC., priority 2003, published 2005).

Key:
patients with NIDDM = conditions: oral administration; cited from earlier work
[1] = test system: patients with coronary heart disease; conditions: 60 mg twice daily oral, after 8 weeks; cited from earlier work
[2] = test system: rats with diabetes induced by chemical destruction of β-cells; conditions: 1% taurine in the drinking water; cited from earlier work
[3] = Effects on animal body weight in STZ-induced hyperglycemia; format: in vivo; conditions: STZ-treated rats, 100 mg/Kg oral
[4] = test system: STZ-induced diabetic rats; test: Repairing damaged β-cells: treatment of STZ-induced diabetic rats for further 21 days; format: in vivo
Procedure: In another set of experiments, STZ-induced diabetic rats, after 21 days, were administered the invention test complex compounds: S-1 (50 mg/Kg, p.o.), S-2 (100 mg/Kg, p.o.), Chromium picolinate (100 mg/Kg, p.o.), Example-1A (100 mg/Kg., p.o.), per day for further 21 days. This experiment was conducted with a view to assessing the repair aspect of the damaged β-cells by the test compounds.

[5] = test system: Steptozocine(STZ)-induced male Wistar rats; test: Effect of high doses of the inventive complex, blood sugar over 21 days; format: in vivo; conditions: 100 mg/Kg oral (S-2: Cr3+ 1,000 μg/Kg; chromium picolinate: Cr3+ 700 μg/Kg), concurrently with STZ 40 mg/Kg s.c.
[6] = test system: Steptozocine(STZ)-induced male albino rats; test: Screening of antidiabetic activity, blood sugar lowering action; format: in vivo; conditions: 300 μg/Kg oral, 48 hr after STZ
obese Zucker rat = conditions: dietary Vitamin E; cited from earlier work
GK rat = conditions: Vitamin E supplementation; cited from earlier work

Compound: O=C(O)CCCC[C@@H]1CCSS1 (racemic) [lipoic acid]
- insulin-mediated glucose uptake (patients with NIDDM): significantly increased

Compound: COC1=C(OC)C(=O)C(C/C=C(\C)CC/C=C(\C)CC/C=C(\C)CC/C=C(\C)CC/C=C(\C)CC/C=C(\C)CC/C=C(\C)CC/C=C(\C)CC/C=C(\C)CCC=C(C)C)=C(C)C1=O [coenzyme Q10]
- plasma levels of insulin (fasting and 2-hr), glucose, and lipid peroxides, as compared to the control group [1]: reduced

Compound: NCCS(=O)(=O)O [taurine]
- renal oxidant injury [2]: reduced

Compound: Chromium picolinate
- Body Weight in gm, day 1 ([3]; day 1): 166 ± 8 gm
- Body Weight in gm, day 7 ([3]; day 7): 180 ± 7 gm
- Body Weight in gm, day 14 ([3]; day 14): 168 ± 9 gm
- Body Weight in gm, day 21 ([3]; day 21): 172 ± 9 gm
- % Change from day 1 (glucose) ([4]; 100 mg/Kg p.o. per day for 21 days, started 21 days after STZ, day 21 vs day 1): +14 ↑ %
- Glucose (mg/dl) values; mean ± SE, day 1 ([4]; 100 mg/Kg p.o. per day, started 21 days after STZ, day 1): 253.2 ± 7.7 mg/dL
- Glucose (mg/dl) values; mean ± SE, day 7 ([4]; 100 mg/Kg p.o. per day, started 21 days after STZ, day 7): 302.8 ± 18.0 mg/dL
- Glucose (mg/dl) values; mean ± SE, day 14 ([4]; 100 mg/Kg p.o. per day, started 21 days after STZ, day 14): 294.3 ± 20.4 mg/dL
- Glucose (mg/dl) values; mean ± SE, day 21 ([4]; 100 mg/Kg p.o. per day, started 21 days after STZ, day 21): 289.6 ± 9.0 mg/dL
- effect on progressive increase in hyperglycemia (post STZ-treatment) ([4]; diabetic rats treated p.o. for 21 days): no beneficial effect
- Blood Sugar Values (Arterial Blood), day 7 ([5]; day 7): 88.7 ± 4.4
- Blood Sugar Values (Arterial Blood), day 14 ([5]; day 14): 94.3 ± 7.2
- Blood Sugar Values (Arterial Blood), day 21 ([5]; day 21): 92.5 ± 3.5

Compound: Chromium polynicotinate [Example N-7]
- Fasting Serum Glucose (mg/dl) (mean ± SEM) ([6]; 3 days before and 2 days after STZ 50 mg/Kg i.v., 18 hr fasting): 141.30 ± 9.54 mg/dL
- % Inhibition (of fasting serum glucose vs STZ) ([6]; 3 days before and 2 days after STZ): 58.25%

Compound: Vitamin E
- glucose-stimulated hyper-insulinemia and lipid peroxidation (obese Zucker rat): significantly reduced
- glycemic control (GK rat): significantly improved
